Patent US9694089B2, “Integrin targeting agents and in-vivo and in-vitro imaging methods using the same” (Visen Medical, Inc., priority 2008, dated 2017)

Legend:
A673 tumors [1] = test: Effect of Avastin treatment on integrin and cathepsin B signals in A673 tumor-bearing mice; type: in vivo
Description: A673 tumor-bearing mice were randomized once their tumors reached the desired volume and injected i.v. with either E-6 (2 nmoles) or free dye (2 nmoles). For competition studies, mice were injected with the parent compound (100 nmoles) followed 5 minutes later by compound E-6 ([…]). For therapy studies, mice were treated with either 2 mg/kg Avastin (bevacizumab, Genentech, CA) or vehicle (PBS) intraperitoneally (i.p.) 2× week, and injected 7 days after beginning the treatment with 2 nmoles each of compound E-6 and ProSense (ProSense750, VisEn Medical, Bedford, Mass.) in a final volume of 200 μl PBS. ProSense is a protease-activatable fluorescence agent comprising fluorochromes linked to a peptide scaffold. Proteolytic cleavage of the scaffold by cathepsin B activity (and to a lesser extent cathepsins K, L, and S) releases the fluorochromes and results in extensive fluorescence (via dequenching). Imaging was performed 24 hours after administration of the agents using the FMT2500. Differential localization of fluorescent signal with compound E-6 and ProSense can be seen in the same animal. The wavelength of the laser was selected to 680 nm or 750 nm, corresponding to the absorption spectra of the fluorescent agents administered to the animal, enabling simultaneous imaging and quantification of 2 spectrally distinct agents.

αIIbβ3 = biological target: T1, αIIbβ3 (Homo sapiens, UniProt P05106+P08514); test: Inhibition of cell attachment to vitronectin, HEK293 cells transfected with αIIbβ3; type: cell-based; conditions: for IC50: HEK293 cells stably transfected with αIIbβ3
T1 construct: expressed in transfected cells; host or cells: HEK293
Description: (§1) In this experiment, human embryonic kidney (HEK293) cells stably transfected with ανβ3 (HEK293-ανβ3 cells) were released with trypsin-EDTA and washed four times with serum-free MEM. […] Non-attached cells were gently washed away. Similar experiments were carried out with HEK293 cells stably transfected with ανβ5, α11bβ3, or α5β1. The attached cells were quantified by colorimetric detection of hexosaminidase enzymatic activity in a Vmax plate reader (Molecular Devices, Menlo Park, Calif.). The number of attached cells was quantified using a standard curve for each cell line assayed and expressed as a mean value of triplicate samples.

[2] = test system: HUVEC (Human umbilical vein endothelial cells); test: Cell binding assay by fluorescence microscopy, HUVEC; type: cell-based
Description: (§2) Cell binding assays were performed using HUVEC (Human umbilical vein endothelial cells) and human rhabdomyosarcoma A673 tumor cells. HUVEC or A673 (50,000 cells) (ATCC, Manassas, Va.) were seeded unto 8-well Lab-Tek chamberslides (Nalge-Nunc International, Naperville, Ill.) and left to adhere overnight at 37° C. in a humidified atmosphere containing 5% CO2. The following day, the medium was changed to fresh complete medium containing compound E-6 or free dye (20 nM), incubated for 30 minutes at 37° C., washed 2×with PBS and fixed with paraformaldehyde for 30 minutes at 4° C. Competition studies were performed by pre-incubating the cells for 5 minutes with parent compound (200 nM) before addition of E-6. The cells on the microscopy slides were then allowed to air dry protected from light. The slides were mounted with ProLong® Gold antifade reagent with DAPI (Molecular Probes, Eugene, Oreg.) and cured overnight at room temperature protected from light. Merged images of the nuclear staining (DAPI) and fluorescent signals were collected using fluorescence microscopy (Zeiss, Thornwood, N.Y.)

ανβ3 [3] = biological target: T2, ανβ3 (Homo sapiens, UniProt P05106+P06756); test: Confocal microscopy cell binding assay on HEK293-ανβ3 cells; type: cell-based
T2 construct: expressed in transfected cells; host or cells: HEK293
Description: Cell binding assays using HEK293 cells stably expressing human ανβ3 were performed.
HEK293 cells stably transfected with ανβ3 (HEK293-ανβ3 cells) were plated onto poly-L-lysine coated Lab-Tek II chambered coverglass (Nuns, Rochester, N.Y.) the day before the assay. Cells were first incubated with DAPI (10 μg/ml) for 3 hours, followed by CellMask (Invitrogen, Carlsbad, Calif.) staining for 5 minutes. Cells were then washed 2× with PBS and incubated with E-6 (200 nM in PBS containing 5% serum) at 4° C. or 37° C. for 30 minutes. For the competition study, cells were incubated with parent compound (200 μM) for 1 hour before E-6 incubation. Confocal microscopy was performed on a Leica SP5 confocal system (Leica, Wetzlar, Germany).

ανβ3 [4] = biological target: T2, ανβ3; test: Inhibition of cell attachment to vitronectin, HEK293-ανβ3 cells; type: cell-based; conditions: for IC50: HEK293-ανβ3 cells, vitronectin-coated wells, 2 hours at 37° C., read-out: IC50 (nM), inhibition of cell attachment to vitronectin, αvβ3
Description: as §1

4T-1 tumors = test: In vivo imaging of 4T-1 tumors; parameters: species or system NU/NU mice; conditions: 4 nmoles i.v., 24 hours post-injection
Description: In this experiment, NU/NU mice 6-8 weeks old (Charles River Laboratory, Wilmington, Mass.) were injected subcutaneously (s.c.) with 2×10^6 4T-1 cells bilaterally in each mammary fat pad. When tumors reached an approximate size of 3×3 mm (around 7 days after cell injection), mice were injected intravenously (i.v.) with 4 nmoles of each integrin agent (5 mice/probe+2 mice/no probe as control) in 100 μL volume via tail vein. Imaging was conducted 24 hours post-injection using a Fluorescence Molecular Tomography system (VisEn Medical, Bedford, Mass.).

α5β1 = biological target: T3, α5β1 (Homo sapiens, UniProt P05556+P08648); test: Inhibition of cell attachment to vitronectin, HEK293 cells transfected with α5β1; type: cell-based; conditions: for IC50: HEK293 cells stably transfected with α5β1
T3 construct: expressed in transfected cells; host or cells: HEK293
Description: In this experiment, human embryonic kidney (HEK293) cells stably transfected with ανβ3 (HEK293-ανβ3 cells) were released with trypsin-EDTA and washed four times with serum-free MEM. Cells (25,000 cells/well) were added to microtiter wells coated with vitronectin and allowed to attach for 2 hours at 37° C. in a humidified incubator in the absence or presence of increasing concentrations of compound E-6 or unlabelled parent compound (as an inhibitor of E-6). Non-attached cells were gently washed away. Similar experiments were carried out with HEK293 cells stably transfected with ανβ5, α11bβ3, or α5β1. The attached cells were quantified by colorimetric detection of hexosaminidase enzymatic activity in a Vmax plate reader (Molecular Devices, Menlo Park, Calif.). The number of attached cells was quantified using a standard curve for each cell line assayed and expressed as a mean value of triplicate samples.

[5] = Plasma pharmacokinetics in mice; type: in vivo, BALB/c mice; conditions: 2 nmoles i.v. bolus, two compartmental model
From the text: Twenty-four female retired breeder BALB/c mice (Charles River Laboratories, Wilmington, Mass.) received a bolus intravenous (i.v.) injection of compound E-6 (2 nmoles in PBS). Terminal blood samples were collected by cardiac puncture from each mouse (following carbon dioxide asphyxiation). Three mice were sampled for each time point. Plasma was collected by centrifugation, diluted 1:2 in DMSO and fluorescence read using a fluorescence plate reader (Molecular Devices, Sunnyvale, Calif.). Data was normalized to a standard curve (FIG. 5A) prepared with known concentrations of E-6.

ανβ5 = biological target: T4, ανβ5 (Homo sapiens, UniProt P06756+P18084); test: Inhibition of cell attachment to vitronectin, HEK293 cells transfected with ανβ5; type: cell-based; conditions: for IC50: HEK293 cells stably transfected with ανβ5, read-out: IC50 (nM), inhibition of cell attachment to vitronectin, αvβ5
T4 construct: expressed in transfected cells; host or cells: HEK293
Description: as §1

ανβ3 [6] = biological target: T2, ανβ3; test: Equilibrium binding and dissociation measurements by flow cytometry on HEK293-ανβ3 cells
Description: The amount of probe bound to integrins on HEK293-ανβ3 cells was determined by flow cytometry (FACSCalibur, BD Biosciences, CA). Data was analyzed using FlowJo software and Kd values were calculated using SigmaPLot 10 software. For koff determination, HEK293-ανβ3 cells (1×10^6) were incubated with 100 nM of E-6 at 4° C. for 30 minutes and labeled cells were than transferred into PBS containing 10 mM of parent compound. The amount of probe bound to the integrins on HEK293-ανβ3 cells was determined by flow cytometry (FACSCalibur, BD Biosciences, CA) before mixing with unlabeled compound, and 1, 1.5, 2.5, 3.5, 4.5, 5.5, and 24 hours after mixing. Data was analyzed using FlowJo software and koff and t1/2 values calculated using SigmaPLot 10 software.

[7] = test system: human rhabdomyosarcoma A673 tumor cells; test: Cell binding assay by fluorescence microscopy, A673 tumor cells; type: cell-based
Description: as §2

A673 tumors [8] = test: In vivo FMT imaging and quantification of signal in A673 tumor-bearing mice; parameters: species or system NU/NU mice
Description: Female NU/NU mice 6-8 weeks old (Charles River Laboratory, Wilmington, Mass.) were injected subcutaneously (s.c.) with A673 cells (5×10^6) in the first mammary fat pads. Once tumors reached the desired volume (measured with calipers using the formula volume mm^3=(length×width^2)/2), mice were injected i.v. with E-6 ([…]) in the absence or presence of excess, competing parent compound (100 nmoles). Control mice received free dye. For in vivo imaging, mice were anesthetized by gas anesthesia (isoflurane/oxygen mixture), placed in the VisEn's FMT2500 system imaging chamber one at a time, and imaged.
The fluorescent signal was quantified by drawing a three-dimensional ROI encompassing each tumor.

[9] = Biodistribution in A673 tumor-bearing mice; type: in vivo, NU/NU mice; conditions: 2 nmoles i.v., 24 hr
Description: For the biodistribution studies, female NU/NU mice 6-8 weeks old (Charles River Laboratory, Wilmington, Mass.) were injected subcutaneously (s.c.) with A673 cells (5×10^6) in the first mammary fat pads. Once tumors reached the desired volume (measured with calipers using the formula volume mm^3=(length×width^2)/2), mice were injected i.v. with compound E-6 (2 nmoles). Mice were sacrificed by carbon dioxide asphyxiation 24 hr later and certain tissues removed, rinsed with saline, blotted dry, and the imaged on VisEn's FMT2500 using the reflectance mode. Regions of interest (ROIs) were drawn around each organ using the FMT Software and the mean fluorescence (reported as counts/energy) determined for each organ and normalized to the mean fluorescence in tumors taken to be 100%.

[10] = agent 20 nM, 30 minutes at 37° C.
[11] = pre-incubation 5 minutes with parent compound 200 nM

Molecule: Cc1ncc([C@@H](CCCCCCc2nc3c(cc2CNC(=O)CCCN(C)S(=O)(=O)c2cccc4c5c(ccc24)N(CCCS(=O)(=O)O)/C(=C/C=C/C=C/C2=[N+](CCS(=O)(=O)[O-])c4ccc6c(S(=O)(=O)O)cc(S(=O)(=O)O)cc6c4C2(C)C)C5(C)C)CCCN3)CC(=O)O)cn1 [Compound E-6]
- signal produced in tumors following Avastin treatment (A673 tumors [1]; A673 tumor-bearing mice, 2 nmoles agent, imaging 24 hours after): decreased by a greater amount than the signal produced by ProSense
- IC50 (αIIbβ3): 39 nM
- potency in binding to α11bβ3 compared to the parent compound (αIIbβ3; in words): retains higher potency
- fluorescent signal of labeled HUVEC cells [2, 10]: Significant fluorescent signal
- internalization (receptor recycling, endocytosis) (ανβ3 [3]; 37° C. versus 4° C.): internalization at 37° C., but not at 4 °C
- binding to HEK293-ανβ3 cells (confocal microscopy) (ανβ3 [3]; E-6 200 nM, 30 minutes, 4° C. or 37° C.): binds to the receptors on the surface of the cells
- IC50 (ανβ3 [4]): 4.1 ± 0.3 nM
- loss of affinity to ανβ3 compared to the parent compound (ανβ3 [4]; ratio of Table 4 IC50 values): 5 fold
- imaging of tumors in vivo (4T-1 tumors): imaged effectively
- IC50 (α5β1): > 2000 nM
- specific binding to α5β1 (α5β1; in words): no specific binding
- plasma t(1)1/2 (free E-6 clearing from circulation) [5]: 6 min
- plasma t(2)1/2 (clearance of bound E-6) [5]: 210 min
- IC50 (ανβ5): 33 nM
- loss of affinity to ανβ5 compared to the parent compound (ανβ5; ratio of Table 4 IC50 values): 25 fold
- koff (ανβ3 [6]; 100 nM E-6, 4° C., HEK293-ανβ3 cells, chase with parent compound, read-out: dissociation rate constant koff): 0.000108 s⁻¹
- Kd (ανβ3 [6]; HEK293-ανβ3 cells, 4° C., 30 minutes, single binding site model, read-out: apparent equilibrium binding constant (Kd)): 4.2 ± 0.6 nM
- binding isotherms in the absence or presence of Mn^2+ (ανβ3 [6]; in words): practically identical
- fluorescent signal of labeled A673 cells [7, 10]: Significant fluorescent signal
- fluorescence in tumors (FMT imaging) (A673 tumors [8]; A673 tumor-bearing mice, agent i.v., in words): readily detected
- tissue distribution of fluorescence [9]: highest concentration found in tumors, followed by the liver, small intestine and skin

Molecule: CCN1/C(=C/C=C(/C=C/C2N(CC)c3ccc4c(S(=O)(=O)O)cc(S(=O)(=O)O)cc4c3C2(C)C)c2ccc(C(=O)NCCCCCC(=O)NCc3cc4c(nc3CCCCCC[C@@H](CC(=O)O)c3cnc(C)nc3)NCCC4)cn2)C(C)(C)c2c1ccc1c(S(=O)(=O)O)cc(S(=O)(=O)O)cc21 (some centres unmarked) [Compound E-7]
- imaging of tumors in vivo (4T-1 tumors): imaged effectively

Molecule: Nc1ncnc2c1ncn2[C@@H]1O[C@H](OCP(=O)(O)O)C=C1F [Parent Compound, reference compound]
- IC50 (αIIbβ3): > 10000 nM
- E-6 fluorescence intensity from HUVEC cells in the presence of a blocking dose [2, 11]: reduced
- effect on binding of E-6 to HEK293-ανβ3 cells (competition) (ανβ3 [3]; parent compound 200 μM for 1 hour before E-6 incubation): prevented
- IC50 (ανβ3 [4]): 0.82 ± 0.2 nM
- IC50 (α5β1): > 10000 nM
- IC50 (ανβ5): 1.3 ± 0.2 nM
- E-6 fluorescence intensity from A673 cells in the presence of a blocking dose [7, 11]: reduced
- effect on total amount of E-6 signal in tumors (competition) (A673 tumors [8]; excess parent compound 100 nmoles, in words): effectively reduces
- decrease of total E-6 fluorescence in tumors (A673 tumors [8]; parent compound 100 nmoles versus E-6 alone, p=0.011): 67%

Molecule: Avastin: Avastin (bevacizumab, Genentech, CA), anti-angiogenic treatment [reference compound]
- effect of treatment on signal produced by compound E-6 in tumors (A673 tumors [1]; Avastin 2 mg/kg i.p. 2× week, agents injected after 7 days): decreased
